Laboratory results reported in article PMC10447463, “Data-mining unveils structure–property–activity correlation of viral infectivity enhancing self-assembling peptides” (Nature Communications, 2023).
Read-outs that look alike come from different tables or passages of the source.

Experiments:
[1] = Turbidity, derived count rate of scattered light; type: physicochemical; details: for Count Rate: derived count rate of scattered light (turbidity); for Log10 Count Rate: turbidity, derived count rate of scattered light, data of Figure 2D
[2] = type: physicochemical; details: for ThT Cat. / ThT-Fluorescence (categorical): ThT-active if fluorescence at least twice the control
Summary of the method: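 Preformed peptide fibrils (1 mg/mL) mixed with 50 µM ThT in PBS, 15 min at RT, fluorescence ex 440/em 488 nm versus PBS blank, triplicates. Zeta potential: peptides at 1 mg/mL in PBS pH 7.4, aged 1 d at RT, diluted in 1 mM KCl, Smoluchowski from electrophoretic mobility.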

[3] = type: physicochemical; design: key to Fibril / Fibril Formation / TEM 2cat / Fibril: 1 = fibrils present; 0 non-fibrillar structures; details: for Fibril / Fibril / Fibril Formation: TEM; for Fibril / Fibril Formation: 1 mg/mL, uranyl acetate stain, qualitative
[4] = ThT fluorescence category, 1 if Rel. ThT >2
[5] = FigS12 panel A, fibril category by TEM
[6] = 1 = fibrils present, 0 = non-fibrillar
[7] = 1 = fibrils present, 0 = non-fibrillar structures
[8] = category: fibrils present or non-fibrillar

Substance	Count Rate [1]	Log10 Count Rate [1]	Tht category (> 2 to blank = +) ([2]; Fig S10 panel D)	Tht category (> 2 to blank = +) ([2]; FigS12 panel A)	ThT Cat, ([2]; FigS12 panel B)	ThT Cat, ([2]; ThT category, 1 if Rel. ThT >2)	ThT Cat. [2, 4]	ThT Cat. / ThT-Fluorescence (categorical) [2]	TEM 2cat ([3]; Fig S10 panel D)	TEM 2cat [3, 5]	Fibril ([3]; FigS12 panel B)	Fibril / Fibril Formation [3]	Fibril [3, 6]	Fibril [3, 7]	ThT Cat. ([2]; ThT category, 1 if Rel. ThT >2)	TEM 2cat [3, 8]
CEFEFQF	367.4	2.565	0 (ThT-inactive (N-Fold <2))	0 (ThT-inactive (N-Fold <2))	0 (ThT-inactive (N-Fold <2))	0 (ThT-inactive (N-Fold <2))	0 (ThT-inactive (N-Fold <2))	0 (ThT-inactive (N-Fold <2))	1	1	1	1	1	1	–	–
NMWQKAKAQA	242.2	2.384	1 (ThT. Cat is 1, if Rel. ThT >2)	1 (ThT. Cat is 1, if Rel. ThT >2)	1 (ThT. Cat is 1, if Rel. ThT >2)	1 (ThT. Cat is 1, if Rel. ThT >2)	–	1 (ThT. Cat is 1, if Rel. ThT >2)	1	1	1	1	1	1	1 (ThT. Cat is 1, if Rel. ThT >2)	–
KAKQAANMWQ	690.5	2.839	0 (ThT-inactive (N-Fold <2))	0 (ThT-inactive (N-Fold <2))	0 (ThT-inactive (N-Fold <2))	0 (ThT-inactive (N-Fold <2))	–	0 (ThT-inactive (N-Fold <2))	0	0	0	0	0	0	0 (ThT-inactive (N-Fold <2))	–
QCKIKQIINM	20551.06667	4.313	1 (ThT. Cat is 1, if Rel. ThT >2)	–	–	1 (ThT. Cat is 1, if Rel. ThT >2)	–	1 (ThT. Cat is 1, if Rel. ThT >2)	1	–	–	1	1	1	1 (ThT. Cat is 1, if Rel. ThT >2)	1
EIEIEIEI	538.4	2.731	0 (ThT-inactive (N-Fold <2))	0 (ThT-inactive (N-Fold <2))	0 (ThT-inactive (N-Fold <2))	0 (ThT-inactive (N-Fold <2))	0 (ThT-inactive (N-Fold <2))	0 (ThT-inactive (N-Fold <2))	1	1	1	1	1	1	–	–
FDPFDPFDP	258	2.412	0 (ThT-inactive (N-Fold <2))	0 (ThT-inactive (N-Fold <2))	0 (ThT-inactive (N-Fold <2))	0 (ThT-inactive (N-Fold <2))	–	0 (ThT-inactive (N-Fold <2))	0	0	0	0	0	0	0 (ThT-inactive (N-Fold <2))	–
KVKVKVQV	94.37	1.975	1 (ThT. Cat is 1, if Rel. ThT >2)	1 (ThT. Cat is 1, if Rel. ThT >2)	1 (ThT. Cat is 1, if Rel. ThT >2)	1 (ThT. Cat is 1, if Rel. ThT >2)	–	1 (ThT. Cat is 1, if Rel. ThT >2)	0	0	0	0	0	0	1 (ThT. Cat is 1, if Rel. ThT >2)	–
KKFQKKFQ	73.6	1.867	0 (ThT-inactive (N-Fold <2))	0 (ThT-inactive (N-Fold <2))	0 (ThT-inactive (N-Fold <2))	0 (ThT-inactive (N-Fold <2))	–	0 (ThT-inactive (N-Fold <2))	0	0	0	0	0	0	0 (ThT-inactive (N-Fold <2))	–
KIKIQINAWQ	1494	3.174	1 (ThT. Cat is 1, if Rel. ThT >2)	–	–	1 (ThT. Cat is 1, if Rel. ThT >2)	1 (ThT. Cat is 1, if Rel. ThT >2)	1 (ThT. Cat is 1, if Rel. ThT >2)	1	–	–	1	1	1	–	1
NMWQKIKQII	982.4	2.992	0 (ThT-inactive (N-Fold <2))	0 (ThT-inactive (N-Fold <2))	0 (ThT-inactive (N-Fold <2))	0 (ThT-inactive (N-Fold <2))	–	0 (ThT-inactive (N-Fold <2))	0	0	0	0	0	0	0 (ThT-inactive (N-Fold <2))	–
MKFM	130.8	2.1165	0 (ThT-inactive (N-Fold <2))	0 (ThT-inactive (N-Fold <2))	0 (ThT-inactive (N-Fold <2))	0 (ThT-inactive (N-Fold <2))	–	0 (ThT-inactive (N-Fold <2))	0	0	0	0	0	0	0 (ThT-inactive (N-Fold <2))	–
HGEHGE	240.6	2.381	0 (ThT-inactive (N-Fold <2))	0 (ThT-inactive (N-Fold <2))	0 (ThT-inactive (N-Fold <2))	0 (ThT-inactive (N-Fold <2))	–	0 (ThT-inactive (N-Fold <2))	0	0	0	0	0	0	0 (ThT-inactive (N-Fold <2))	–
NMWQKIKIQI	10024.06667	4.001	1 (ThT. Cat is 1, if Rel. ThT >2)	–	–	1 (ThT. Cat is 1, if Rel. ThT >2)	1 (ThT. Cat is 1, if Rel. ThT >2)	1 (ThT. Cat is 1, if Rel. ThT >2)	1	–	–	1	1	1	–	1
KVKGVGK	51.17	1.709	0 (ThT-inactive (N-Fold <2))	0 (ThT-inactive (N-Fold <2))	0 (ThT-inactive (N-Fold <2))	0 (ThT-inactive (N-Fold <2))	–	0 (ThT-inactive (N-Fold <2))	0	0	0	0	0	0	0 (ThT-inactive (N-Fold <2))	–
CKFKFQFNMW	4107	3.613	1 (ThT. Cat is 1, if Rel. ThT >2)	–	–	1 (ThT. Cat is 1, if Rel. ThT >2)	1 (ThT. Cat is 1, if Rel. ThT >2)	1 (ThT. Cat is 1, if Rel. ThT >2)	1	–	–	1	1	1	–	1
TKTLTKTL	514.6	2.711	0 (ThT-inactive (N-Fold <2))	0 (ThT-inactive (N-Fold <2))	0 (ThT-inactive (N-Fold <2))	0 (ThT-inactive (N-Fold <2))	–	0 (ThT-inactive (N-Fold <2))	0	0	0	0	0	0	0 (ThT-inactive (N-Fold <2))	–
KIRGKFEKED	214.4	2.331	1 (ThT. Cat is 1, if Rel. ThT >2)	1 (ThT. Cat is 1, if Rel. ThT >2)	1 (ThT. Cat is 1, if Rel. ThT >2)	1 (ThT. Cat is 1, if Rel. ThT >2)	–	1 (ThT. Cat is 1, if Rel. ThT >2)	0	0	0	0	0	0	1 (ThT. Cat is 1, if Rel. ThT >2)	–
